Among the data in PubChem BioAssay (NCI) are TGI values, retold here.

Some test systems named below: EKVX NSCLC; COLO 205 colon; SN12C renal; UO-31 renal; OVCAR-4 ovarian; NCI-H23 lung; SF-295 CNS; HCT-116 colon; M14 melanoma; OVCAR-5 ovarian; PC-3 prostate; K-562 leukemia; UACC-62 melanoma; SNB-75 CNS; MDA-MB-435; NCI/ADR-RES ovarian; A549 NSCLC; SF-539 CNS; NCI-H460 lung; HCC-2998 colon.
Common to all, as to test: growth of human tumour cells (NCI), 48 h

The structures appear in SMILES notation.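 Grown in 96-well plates, cells were treated for 48 hours with each compound at five concentrations. Insufficient inhibition: endpoint recorded as highest concentration tested. TGI: total growth inhibition.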 Where a SMILES comes first, the peptide text is derived from it. The star is where a group is joined. Cbz = O=C(OCc1ccccc1)*

For `C=CCN1CCC(O)(c2cc(C(=O)OCC)[nH]c2-c2cc(C)no2)C1` (configuration not stated), the TGI in the assay on EKVX NSCLC, with COLO 205 colon, in the assay with SN12C renal, in the assay with UO-31 renal, with OVCAR-4 ovarian and in the assay on NCI-H23 lung was > 100 µM in each case. Besides, the TGI in the assay with SF-295 CNS, in the assay with HCT-116 colon, in the assay on M14 melanoma, with OVCAR-5 ovarian, in the assay with PC-3 prostate and in the assay on K-562 leukemia was > 100 µM throughout. The TGI with UACC-62 melanoma, in the assay on SNB-75 CNS, in the assay on MDA-MB-435, with NCI/ADR-RES ovarian, in the assay with A549 NSCLC and in the assay on SF-539 CNS was > 100 µM each time. In the assay on NCI-H460 lung, the TGI is > 100 µM.

Turning to `COC1=C(Br)[C@H](O)[C@@]2(C=C1Br)CC(C(=O)NCCCOc1c(Br)cc(C(O)CNC(C)=O)cc1Br)=NO2` (some centres not stated), the TGI with COLO 205 colon, with SN12C renal, in the assay with UO-31 renal, in the assay with OVCAR-4 ovarian, with NCI-H23 lung and in the assay on SF-295 CNS was > 10 µM in each case. The TGI in the assay on HCT-116 colon, with M14 melanoma, in the assay on OVCAR-5 ovarian, in the assay on PC-3 prostate, with K-562 leukemia and in the assay with UACC-62 melanoma was > 10 µM in each case. Besides, the TGI is > 10 µM in the assay with SNB-75 CNS; 5.12 µM in the assay with MDA-MB-435; > 10 µM in the assay on NCI/ADR-RES ovarian; > 10 µM with HCC-2998 colon; > 10 µM in the assay on A549 NSCLC; > 10 µM in the assay on SF-539 CNS. For the same compound, the TGI in the assay with NCI-H460 lung is > 10 µM.

Regarding `O=C1C=C(NCCOCCO)C(=O)c2c(O)ccc(O)c21`, the TGI in the assay with COLO 205 colon is 32.7 µM; in the assay with UO-31 renal, > 100 µM; in the assay on OVCAR-4 ovarian it was 33.4 µM; in the assay on NCI-H23 lung it was 47.9 µM; in the assay with SF-295 CNS, > 100 µM; with HCT-116 colon it was 55 µM. The TGI is 66.9 µM with M14 melanoma; > 100 µM in the assay with OVCAR-5 ovarian; > 100 µM with PC-3 prostate; 87.4 µM in the assay with K-562 leukemia; 28.2 µM in the assay with UACC-62 melanoma; > 100 µM in the assay with SNB-75 CNS. The TGI in the assay on MDA-MB-435 is 32.6 µM; in the assay on NCI/ADR-RES ovarian, 65.7 µM; in the assay with HCC-2998 colon, 43.6 µM; with A549 NSCLC, 73.6 µM; with SF-539 CNS, 54.6 µM; with NCI-H460 lung it was > 100 µM.

`CC(NC(=O)C(NC(=O)OCc1ccccc1)C(C)C)C(=O)NCC(=O)O` (stereo not drawn) (Cbz-Val-Ala-Gly-OH; configuration not given here): the TGI in the assay with EKVX NSCLC, with COLO 205 colon, in the assay on SN12C renal, in the assay with UO-31 renal, with NCI-H23 lung and with SF-295 CNS was > 100 µM in each case. Moreover, the TGI in the assay with HCT-116 colon, with M14 melanoma, in the assay on OVCAR-5 ovarian, in the assay on PC-3 prostate, with K-562 leukemia and in the assay on UACC-62 melanoma was > 100 µM throughout. Besides, the TGI in the assay on MDA-MB-435, in the assay with NCI/ADR-RES ovarian, in the assay with HCC-2998 colon, in the assay on A549 NSCLC, in the assay with SF-539 CNS and in the assay on NCI-H460 lung was > 100 µM each time.

As for `Cc1nc2ccc(F)cc2c2c1CCN2c1ccc(Cl)cc1`, the TGI in the assay with COLO 205 colon is 20.6 µM; with SN12C renal it was 97.6 µM; in the assay with UO-31 renal, 78.3 µM; in the assay on OVCAR-4 ovarian, > 100 µM; in the assay with NCI-H23 lung, 48.2 µM; in the assay with SF-295 CNS it was > 100 µM. Further, the TGI with HCT-116 colon was 36.2 µM; with M14 melanoma it was 21.4 µM; in the assay on OVCAR-5 ovarian, > 100 µM; in the assay with PC-3 prostate, 22.7 µM; with K-562 leukemia, 13.4 µM; in the assay on UACC-62 melanoma, 39.1 µM. In addition, the TGI is > 100 µM in the assay with SNB-75 CNS; 33.5 µM in the assay with MDA-MB-435; 19.8 µM with NCI/ADR-RES ovarian; 29.4 µM in the assay with HCC-2998 colon; > 100 µM in the assay on A549 NSCLC; 24.3 µM in the assay on SF-539 CNS. The TGI in the assay on NCI-H460 lung came out at 47.7 µM.

`CC(=O)OCC1OC(n2c(C)cc(C)c(C#N)c2=S)C(OC(C)=O)C(OC(C)=O)C1OC(C)=O` (configuration not stated): the TGI in the assay on COLO 205 colon, in the assay with SN12C renal, with UO-31 renal, in the assay with OVCAR-4 ovarian, with NCI-H23 lung and with SF-295 CNS was > 100 µM throughout. For the same compound, the TGI with HCT-116 colon, with M14 melanoma, with OVCAR-5 ovarian, with PC-3 prostate, with K-562 leukemia and in the assay with UACC-62 melanoma was > 100 µM each time. Also, the TGI with SNB-75 CNS, in the assay with MDA-MB-435, in the assay on NCI/ADR-RES ovarian, in the assay on HCC-2998 colon, in the assay with A549 NSCLC and in the assay on SF-539 CNS was > 100 µM in each case. Besides, the TGI in the assay with NCI-H460 lung is > 100 µM.
